# Activity calls are given as the source filed them.
# Tests used:
# [1] = Luminescent dose response cell-based high throughput screening assay for inhibitors of the Janus kinase 2 mutant JAK2V617F. [Related pubchem assays: 1446 (Primary screen.), 1521 (Confirmation assay.), 1486 (Counter screen.)]; format: functional
# [2] = target: T1, Sphingosine 1-phosphate receptor 4 (Homo sapiens, UniProt O95977); assay: Late stage fluorescence dose response cell-based screening assay for antagonists of the Sphingosine 1-Phosphate Receptor 4 (S1P4). [Related pubchem assays: 1524 (Confirmation screen (S1P4 antagonists).), 1510 (Primary screen (S1P4 antagonists).), 1853 (Summary AID (S1P4 antagonists).), 1692 (Dose response screen (S1P4 antagonists).)]; format: functional
# [3] = target: T1, Sphingosine 1-phosphate receptor 4; assay: Fluorescence dose response cell-based high throughput screening assay for antagonists of the Sphingosine 1-Phosphate Receptor 4 (S1P4). [Related pubchem assays: 1524 (Confirmation in triplicates.), 1510 (Primary screen.)]; format: functional
# [4] = target: Sphingosine 1-phosphate receptor 1 (Homo sapiens, UniProt P21453); format: functional;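 also: Tango beta-arrestin reporter U2OS cells stimulated with S1P near its EC80; inhibitor potency meaning antagonism of receptor activation by the natural agonist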
# [5] = target: T2, Replicative DNA helicase DnaB (Mycobacterium tuberculosis, UniProt P9WMR3); assay: DnaB intein splicing inhibitors, dose response, biochemical, cell-free fluorescence (AID 449749); format: functional
# T2 sequence (P9WMR3 whole entry): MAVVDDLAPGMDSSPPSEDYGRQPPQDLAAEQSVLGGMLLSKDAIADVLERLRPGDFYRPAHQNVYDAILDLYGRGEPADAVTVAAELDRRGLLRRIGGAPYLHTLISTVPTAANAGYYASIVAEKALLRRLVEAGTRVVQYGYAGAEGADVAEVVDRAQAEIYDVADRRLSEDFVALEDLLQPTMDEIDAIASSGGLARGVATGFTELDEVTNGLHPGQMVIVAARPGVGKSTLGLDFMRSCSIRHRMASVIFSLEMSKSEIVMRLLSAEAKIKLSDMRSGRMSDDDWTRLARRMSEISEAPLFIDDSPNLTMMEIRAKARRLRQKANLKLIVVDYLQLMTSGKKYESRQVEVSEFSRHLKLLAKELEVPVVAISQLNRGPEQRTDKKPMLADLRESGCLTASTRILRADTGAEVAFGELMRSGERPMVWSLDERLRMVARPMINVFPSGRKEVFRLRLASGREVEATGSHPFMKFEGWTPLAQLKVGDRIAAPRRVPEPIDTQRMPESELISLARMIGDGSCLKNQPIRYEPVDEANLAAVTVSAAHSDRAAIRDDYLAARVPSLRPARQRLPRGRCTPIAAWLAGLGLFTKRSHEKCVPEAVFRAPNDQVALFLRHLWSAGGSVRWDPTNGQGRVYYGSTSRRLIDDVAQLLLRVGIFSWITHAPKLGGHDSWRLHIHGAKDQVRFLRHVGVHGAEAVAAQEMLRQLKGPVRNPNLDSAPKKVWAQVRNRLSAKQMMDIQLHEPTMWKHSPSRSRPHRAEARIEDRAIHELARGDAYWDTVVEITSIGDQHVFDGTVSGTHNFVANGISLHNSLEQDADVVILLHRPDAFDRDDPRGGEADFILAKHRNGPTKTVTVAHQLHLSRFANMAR
# Protein RecA = target: T3, Protein RecA (Mycobacterium tuberculosis, UniProt P9WHJ3); assay: Fluorescence Cell-Free Homogeneous Dose Retest to Identify Inhibitors of RecA-Intein Splicing Activity. [Related pubchem assays (depositor defined):AID2097, AID2223, AID489010, AID492950]; format: functional
# T3 sequence (P9WHJ3 whole entry): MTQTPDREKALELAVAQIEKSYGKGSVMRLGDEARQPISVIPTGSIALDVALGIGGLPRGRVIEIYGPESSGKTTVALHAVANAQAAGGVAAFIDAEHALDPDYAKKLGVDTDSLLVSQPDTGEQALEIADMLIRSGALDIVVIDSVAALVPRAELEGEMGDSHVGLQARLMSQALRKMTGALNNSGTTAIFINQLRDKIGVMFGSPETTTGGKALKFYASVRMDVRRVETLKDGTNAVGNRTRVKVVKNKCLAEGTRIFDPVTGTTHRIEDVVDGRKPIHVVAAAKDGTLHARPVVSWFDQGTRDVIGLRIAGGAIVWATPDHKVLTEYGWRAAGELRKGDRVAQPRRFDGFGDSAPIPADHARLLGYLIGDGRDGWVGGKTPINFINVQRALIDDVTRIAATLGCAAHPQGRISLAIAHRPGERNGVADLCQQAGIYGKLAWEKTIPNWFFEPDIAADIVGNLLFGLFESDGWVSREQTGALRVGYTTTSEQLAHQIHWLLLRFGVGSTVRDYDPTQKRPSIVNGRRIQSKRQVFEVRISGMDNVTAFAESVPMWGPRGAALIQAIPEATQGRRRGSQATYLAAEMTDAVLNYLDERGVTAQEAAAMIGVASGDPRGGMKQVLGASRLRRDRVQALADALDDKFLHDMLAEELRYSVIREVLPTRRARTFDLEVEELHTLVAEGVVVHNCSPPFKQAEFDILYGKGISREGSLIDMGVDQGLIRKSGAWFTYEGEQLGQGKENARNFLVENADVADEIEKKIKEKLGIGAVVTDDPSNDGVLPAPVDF
# [6] = target: Beta-2 adrenergic receptor (Homo sapiens, UniProt P07550); assay: ADRB2 activation measured by internalization – cell-based, FAP fluorogen, flow cytometry, cherry pick 1, dose response (AID 588763); format: functional
# Fatty acid synthase [7] = target: T4, Fatty acid synthase (Homo sapiens, UniProt P49327); assay: inhibition of human FAS-TE enzyme activity – biochemical, endpoint fluorescence intensity, uHTS hits, dose response (AID 624327); format: functional;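 also: fluorescence from hydrolysis of an O-methyl fluorescein acyl ester substrate by the enzyme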
# Fatty acid synthase [8] = target: T4, Fatty acid synthase; assay: inhibition of human FAS-TE enzyme activity – biochemical, kinetic fluorescence intensity, dose response (AID 624326); format: functional;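 also: rate of fluorescence rise from hydrolysis of a fluorogenic O-methyl fluorescein ester substrate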
# [9] = NIH-3T3 fibroblast cytotoxicity, dose response, cytotoxicity control, cell-based, fluorescence, Alamar Blue, secondary assay (AID 2327); format: functional;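 also: NIH-3T3 mouse fibroblasts cultured with fluconazole at 8 µg/mL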
# BJ [10] = assay: BJ-TERT fibroblast viability loss – cell-based, RAS-independent, luminescence, dose response (AID 1933); format: functional; settings: Homo sapiens
# cells [11] = format: functional, cell-based
# BJ [12] = assay: cells; format: functional, cell-based; settings: Homo sapiens
# [13] = fluconazole-exposed Candida albicans growth modulators – fluorescence, retest, confirmation (AID 2467); format: functional, cell-based
# [14] = Luminescence-based dose response cell-based high throughput screening assay for cytotoxic compounds using the IEC-6 intestinal epithelial cell line. [Related pubchem assays: 1858 (Summary AID.), 1825 (Counterscreen.), 1907 (Confirmation screen.)]; format: functional
# cells [15] = format: functional, cell-based; remark: listed apart in the source
# [16] = target: Serine/threonine-protein phosphatase (Candida dubliniensis (strain CD36 / CBS 7987 / NCPF 3949 / NRRLY-17841) (Yeast), UniProt B9W6M3); assay: blockers of CaCl2-induced CDRE-lacZ signaling – S. cerevisiae, luminescence, secondary, dose response (AID 2388); format: functional, cell-based;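 also: yeast reporter cells carrying a calcineurin-responsive lacZ construct stimulated with calcium chloride; luminescent beta-galactosidase reporter signal in whole cells rather than isolated phosphatase activity; potency for inhibition where a drop in reporter signal means calcineurin blockade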
# BJ [17] = assay: BJ-TERT-LT-ST fibroblast viability loss – cell-based, RAS-independent, luminescence, dose response (AID 1935); format: functional; settings: Homo sapiens;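 also: BJ fibroblasts immortalized with TERT plus LT and ST oncogenes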
# [18] = DRD fibroblast viability loss – cell-based, non-viral oncogenic, luminescence, dose response (AID 1934); format: functional; settings: Homo sapiens
# [19] = HEK-293T viability loss after treatment – luminescence, T-cell screen hits, cytotoxicity control for TCR NF-kB inhibitor project, dose response (AID 489026); format: functional, cell-based;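 also: cells exposed to compound about 14 hours before the viability readout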
# HEK293 [20] = assay: EBV LMP1 TES2 canonical NF-kB signalling blockers – cell-based, HEK293, luciferase, cherry-pick, dose response (AID 588343); format: functional; settings: Homo sapiens
# [21] = target: Heat shock protein HSP 90-alpha (Homo sapiens, UniProt P07900); format: functional, organism-based
# HEK293 [22] = assay: HEK293T cell viability loss, resazurin readout – resazurin fluorescence, cytotoxicity control for NF-kB activator project, SAR follow-up (AID 493251); format: functional, cell-based; settings: Homo sapiens
# Jurkat = assay: SAR Analysis of small molecule inhibitors of T-cell specific antigen receptor-induced NF-kB activation in a Jurkat cell line using a luminescence assay - Set 2. [Related pubchem assays (depositor defined):AID435003, AID435012, AID465]; format: functional, cell-based; settings: Homo sapiens
# HEK293 [23] = assay: SAR Analysis of small molecule inhibitors of T-cell specific antigen receptor-induced NF-kB activation in a HEK-293T cell line using a luminescence assay - Set 2. [Related pubchem assays (depositor defined):AID435003, AID435012, AID489026]; format: functional, cell-based; settings: Homo sapiens
# INS1 = assay: INS-1E survival protection against cytokine death – cell-based, luminescence, retest, dose response (AID 449756); format: functional; settings: Rattus norvegicus;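 also: cell death triggered by IL-1 beta plus TNF-alpha plus IFN-gamma mixture; protective hits raise ATP signal compared with cytokine alone wells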
# [24] = target: ATP-dependent molecular chaperone HSP82 (Candida albicans (strain WO-1) (Yeast), UniProt C4YTQ8); assay: steroid-induced GRE reporter decrease in yeast – S. cerevisiae, luminescence, Hsp90 inhibitor project, dose response (AID 2400); format: functional, cell-based;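 also: beta-galactosidase luminescence from glucocorticoid response element reporter as proxy for Hsp90 function; inhibitor potency where signal loss means Hsp90 inhibition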
# [25] = reduction of Shn3 3'UTR-driven luciferase in osteoblasts – cell-based, Clone20 osteoblasts, firefly luciferase, cherry-picked, dose response (AID 624132); format: functional;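 also: firefly luciferase luminescence from reporter carrying the Shn3 3'UTR in osteoblasts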
# [26] = loss of viability in HepG2 cells – cell-based, CellTiter-Glo, cherry-picked, cytotoxicity control for Shn3 inhibitor project, dose response (AID 624134); format: functional
# [27] = non-specific 3'UTR reporter inhibition in Clone20-Shn3RL – cell-based, Renilla luciferase, cherry-picked, counter-screen for Shn3 inhibitor project, dose response (AID 624133); format: functional
# [28] = target: G-protein coupled receptor 55 (Homo sapiens, UniProt Q9Y2T6); assay: selective activators of receptor GPR55 – imaging, U2OS cells, beta-arrestin-GFP redistribution, primary screen (AID 1961); format: functional
# Hexokinase HKDC1 = target: T5, Hexokinase HKDC1 (Homo sapiens, UniProt Q2TB90); assay: inhibition of HKDC1 glucose phosphorylation – biochemical, W721R variant, dose response (AID 504729); format: functional
# T5 sequence (Q2TB90 whole entry): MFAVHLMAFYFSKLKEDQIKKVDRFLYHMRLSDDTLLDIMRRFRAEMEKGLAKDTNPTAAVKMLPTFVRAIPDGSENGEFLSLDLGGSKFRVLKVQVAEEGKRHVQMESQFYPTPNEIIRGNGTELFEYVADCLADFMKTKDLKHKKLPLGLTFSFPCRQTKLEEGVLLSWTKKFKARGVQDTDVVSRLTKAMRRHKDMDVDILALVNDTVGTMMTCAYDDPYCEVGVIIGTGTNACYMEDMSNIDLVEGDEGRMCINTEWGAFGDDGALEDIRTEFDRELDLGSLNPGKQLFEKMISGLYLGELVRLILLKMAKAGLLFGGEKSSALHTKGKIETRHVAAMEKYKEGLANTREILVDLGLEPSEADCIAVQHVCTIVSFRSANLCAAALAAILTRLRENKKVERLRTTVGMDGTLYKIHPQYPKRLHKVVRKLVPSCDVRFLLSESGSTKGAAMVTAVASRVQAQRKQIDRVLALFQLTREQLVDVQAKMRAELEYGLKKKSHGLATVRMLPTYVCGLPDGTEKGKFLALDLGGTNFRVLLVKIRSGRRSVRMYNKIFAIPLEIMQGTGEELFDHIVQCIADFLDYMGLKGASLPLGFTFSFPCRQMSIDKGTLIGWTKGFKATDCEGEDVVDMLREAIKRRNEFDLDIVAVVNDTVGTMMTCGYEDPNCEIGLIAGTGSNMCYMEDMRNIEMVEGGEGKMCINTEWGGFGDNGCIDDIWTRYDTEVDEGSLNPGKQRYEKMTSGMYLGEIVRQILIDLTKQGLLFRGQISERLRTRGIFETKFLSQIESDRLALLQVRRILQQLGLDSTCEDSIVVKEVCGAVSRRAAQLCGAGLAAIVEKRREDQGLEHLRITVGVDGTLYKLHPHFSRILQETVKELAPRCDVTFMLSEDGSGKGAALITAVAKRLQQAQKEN
# Vero = assay: viability of Vero cells under compound – cytotoxicity control for flavivirus capping enzyme inhibitors (AID 588742); format: functional; settings: Chlorocebus sabaeus
# [29] = target: DNA (cytosine-5)-methyltransferase 1 (Homo sapiens, UniProt P26358); assay: inhibition of DNA methylation by DNMT1 – biochemical, fluorescent molecular beacon, confirmation (AID 602386); format: functional
# T1 sequence (O95977 whole entry): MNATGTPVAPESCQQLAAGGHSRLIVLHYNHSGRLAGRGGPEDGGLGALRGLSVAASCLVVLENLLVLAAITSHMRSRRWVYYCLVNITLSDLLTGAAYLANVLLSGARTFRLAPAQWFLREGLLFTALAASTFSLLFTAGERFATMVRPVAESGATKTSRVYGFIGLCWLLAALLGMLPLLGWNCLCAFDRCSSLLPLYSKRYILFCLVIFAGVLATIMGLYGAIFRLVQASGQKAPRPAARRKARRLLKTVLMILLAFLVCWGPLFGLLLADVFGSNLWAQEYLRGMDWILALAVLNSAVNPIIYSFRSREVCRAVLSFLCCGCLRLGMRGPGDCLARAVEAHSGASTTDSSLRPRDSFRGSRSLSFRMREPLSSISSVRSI
# T4 sequence (P49327 whole entry): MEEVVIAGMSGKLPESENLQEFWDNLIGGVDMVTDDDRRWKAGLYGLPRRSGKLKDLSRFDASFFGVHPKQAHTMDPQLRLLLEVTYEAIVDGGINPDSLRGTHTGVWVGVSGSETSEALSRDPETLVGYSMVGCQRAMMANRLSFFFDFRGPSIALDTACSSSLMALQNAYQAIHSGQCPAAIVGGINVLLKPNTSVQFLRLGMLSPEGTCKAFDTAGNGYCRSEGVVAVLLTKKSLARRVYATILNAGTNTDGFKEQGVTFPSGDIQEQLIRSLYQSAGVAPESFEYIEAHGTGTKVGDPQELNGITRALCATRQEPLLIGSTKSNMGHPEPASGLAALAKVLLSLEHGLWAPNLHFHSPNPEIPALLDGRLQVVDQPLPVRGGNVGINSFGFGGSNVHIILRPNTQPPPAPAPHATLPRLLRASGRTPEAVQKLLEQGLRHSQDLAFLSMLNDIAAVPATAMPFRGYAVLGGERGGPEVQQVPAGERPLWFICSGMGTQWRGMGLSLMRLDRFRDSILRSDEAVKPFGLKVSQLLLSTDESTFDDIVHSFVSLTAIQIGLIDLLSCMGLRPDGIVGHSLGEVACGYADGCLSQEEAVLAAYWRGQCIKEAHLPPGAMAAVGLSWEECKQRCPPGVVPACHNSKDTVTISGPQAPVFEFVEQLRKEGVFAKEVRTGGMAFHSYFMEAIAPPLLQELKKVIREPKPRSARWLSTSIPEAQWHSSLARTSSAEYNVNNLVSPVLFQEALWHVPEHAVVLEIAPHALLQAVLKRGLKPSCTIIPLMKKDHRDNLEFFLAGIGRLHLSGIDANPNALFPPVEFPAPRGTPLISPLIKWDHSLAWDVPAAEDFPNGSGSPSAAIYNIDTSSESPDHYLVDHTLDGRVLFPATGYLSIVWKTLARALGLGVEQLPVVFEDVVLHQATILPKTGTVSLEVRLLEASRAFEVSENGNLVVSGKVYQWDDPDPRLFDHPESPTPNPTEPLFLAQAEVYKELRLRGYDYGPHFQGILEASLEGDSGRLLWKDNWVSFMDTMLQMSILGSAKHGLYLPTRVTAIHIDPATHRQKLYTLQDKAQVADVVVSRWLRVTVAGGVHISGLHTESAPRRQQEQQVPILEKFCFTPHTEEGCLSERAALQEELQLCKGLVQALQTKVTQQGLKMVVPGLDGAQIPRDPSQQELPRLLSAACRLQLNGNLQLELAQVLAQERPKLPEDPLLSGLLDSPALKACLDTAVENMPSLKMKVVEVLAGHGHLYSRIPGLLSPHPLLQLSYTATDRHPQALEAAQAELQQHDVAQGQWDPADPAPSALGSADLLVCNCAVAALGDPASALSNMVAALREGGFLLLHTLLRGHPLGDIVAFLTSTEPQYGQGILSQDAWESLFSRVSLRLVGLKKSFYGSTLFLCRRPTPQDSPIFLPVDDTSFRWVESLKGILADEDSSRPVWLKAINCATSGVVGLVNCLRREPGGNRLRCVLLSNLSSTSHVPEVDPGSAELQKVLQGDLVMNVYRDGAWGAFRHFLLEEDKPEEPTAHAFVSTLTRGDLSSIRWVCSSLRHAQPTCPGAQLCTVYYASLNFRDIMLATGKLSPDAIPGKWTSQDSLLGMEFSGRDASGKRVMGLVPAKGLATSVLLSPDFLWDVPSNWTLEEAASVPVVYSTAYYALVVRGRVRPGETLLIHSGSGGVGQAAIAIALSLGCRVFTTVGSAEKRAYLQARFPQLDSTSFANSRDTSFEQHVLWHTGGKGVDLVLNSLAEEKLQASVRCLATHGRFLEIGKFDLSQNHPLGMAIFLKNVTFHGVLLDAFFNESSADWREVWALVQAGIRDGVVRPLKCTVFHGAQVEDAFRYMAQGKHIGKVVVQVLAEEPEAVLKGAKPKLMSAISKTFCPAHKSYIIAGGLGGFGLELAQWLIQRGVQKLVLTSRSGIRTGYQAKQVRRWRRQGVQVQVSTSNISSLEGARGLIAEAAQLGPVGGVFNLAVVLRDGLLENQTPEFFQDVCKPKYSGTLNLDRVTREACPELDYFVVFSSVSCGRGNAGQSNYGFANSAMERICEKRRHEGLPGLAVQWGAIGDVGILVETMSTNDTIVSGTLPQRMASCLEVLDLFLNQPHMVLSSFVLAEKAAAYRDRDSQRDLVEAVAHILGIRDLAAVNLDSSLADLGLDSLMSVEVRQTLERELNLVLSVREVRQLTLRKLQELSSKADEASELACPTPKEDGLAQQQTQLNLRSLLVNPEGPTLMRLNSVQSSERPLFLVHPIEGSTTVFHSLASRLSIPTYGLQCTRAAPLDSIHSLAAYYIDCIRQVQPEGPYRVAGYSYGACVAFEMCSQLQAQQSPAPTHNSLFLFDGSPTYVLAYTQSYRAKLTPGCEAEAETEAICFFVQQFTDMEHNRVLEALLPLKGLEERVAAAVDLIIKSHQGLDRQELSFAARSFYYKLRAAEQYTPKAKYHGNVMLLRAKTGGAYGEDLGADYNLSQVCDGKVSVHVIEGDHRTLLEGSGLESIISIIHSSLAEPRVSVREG
# Chain of Beta-2 adrenergic receptor (P07550 whole entry): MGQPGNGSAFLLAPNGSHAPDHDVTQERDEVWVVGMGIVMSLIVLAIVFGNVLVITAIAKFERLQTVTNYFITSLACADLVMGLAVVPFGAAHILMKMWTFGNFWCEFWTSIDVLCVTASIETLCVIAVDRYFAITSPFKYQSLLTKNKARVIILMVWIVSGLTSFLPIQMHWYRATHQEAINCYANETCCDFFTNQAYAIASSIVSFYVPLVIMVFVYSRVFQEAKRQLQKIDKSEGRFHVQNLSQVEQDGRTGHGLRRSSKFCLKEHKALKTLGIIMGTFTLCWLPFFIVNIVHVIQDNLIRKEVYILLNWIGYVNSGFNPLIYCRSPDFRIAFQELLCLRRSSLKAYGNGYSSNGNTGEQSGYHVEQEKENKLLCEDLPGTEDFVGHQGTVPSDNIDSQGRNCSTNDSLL
# Chain of Sphingosine 1-phosphate receptor 1 (P21453 whole entry): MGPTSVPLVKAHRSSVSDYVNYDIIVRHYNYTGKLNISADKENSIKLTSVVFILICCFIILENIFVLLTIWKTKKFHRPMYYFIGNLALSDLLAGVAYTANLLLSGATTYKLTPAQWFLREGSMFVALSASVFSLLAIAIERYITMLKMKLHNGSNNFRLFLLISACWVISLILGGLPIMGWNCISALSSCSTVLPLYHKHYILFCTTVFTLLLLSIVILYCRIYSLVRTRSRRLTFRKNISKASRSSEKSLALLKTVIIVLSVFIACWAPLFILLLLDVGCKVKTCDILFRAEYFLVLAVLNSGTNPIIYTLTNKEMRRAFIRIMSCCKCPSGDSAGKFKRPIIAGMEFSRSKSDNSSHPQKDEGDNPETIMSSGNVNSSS
# Chain of G-protein coupled receptor 55 (Q9Y2T6 whole entry): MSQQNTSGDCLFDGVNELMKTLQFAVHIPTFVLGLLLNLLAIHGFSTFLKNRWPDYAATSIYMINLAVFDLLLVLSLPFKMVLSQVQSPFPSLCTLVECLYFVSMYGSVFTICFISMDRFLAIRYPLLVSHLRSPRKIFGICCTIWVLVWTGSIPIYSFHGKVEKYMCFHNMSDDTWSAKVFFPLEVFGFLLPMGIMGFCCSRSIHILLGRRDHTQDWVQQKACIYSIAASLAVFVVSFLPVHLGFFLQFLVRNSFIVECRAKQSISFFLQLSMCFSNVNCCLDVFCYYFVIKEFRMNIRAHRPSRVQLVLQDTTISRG
# Chain of ATP-dependent molecular chaperone HSP82 (C4YTQ8 whole entry): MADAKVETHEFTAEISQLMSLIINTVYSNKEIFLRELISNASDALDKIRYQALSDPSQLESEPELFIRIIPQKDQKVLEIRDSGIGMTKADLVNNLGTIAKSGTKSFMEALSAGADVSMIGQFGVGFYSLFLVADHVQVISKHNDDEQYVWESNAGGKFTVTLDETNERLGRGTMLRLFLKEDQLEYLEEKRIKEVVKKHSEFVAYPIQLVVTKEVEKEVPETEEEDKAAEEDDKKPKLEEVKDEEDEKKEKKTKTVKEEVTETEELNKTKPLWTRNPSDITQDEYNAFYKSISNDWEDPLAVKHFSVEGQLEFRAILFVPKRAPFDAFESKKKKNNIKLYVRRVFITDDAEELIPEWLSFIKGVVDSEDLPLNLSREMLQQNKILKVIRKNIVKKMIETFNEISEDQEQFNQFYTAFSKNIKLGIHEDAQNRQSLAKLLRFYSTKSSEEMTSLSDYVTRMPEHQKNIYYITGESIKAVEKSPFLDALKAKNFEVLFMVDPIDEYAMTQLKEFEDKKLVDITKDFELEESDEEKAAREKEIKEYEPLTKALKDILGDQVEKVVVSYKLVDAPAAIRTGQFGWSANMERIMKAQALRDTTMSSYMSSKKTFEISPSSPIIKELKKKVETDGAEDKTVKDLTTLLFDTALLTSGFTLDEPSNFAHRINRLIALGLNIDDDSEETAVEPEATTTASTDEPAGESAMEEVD
smiles,measurement,setting,value
CCCC(=O)N(C1CC(C)C(C#N)(C#N)C1(C#N)C#N)N(C)C (stereo not given),IC50,[1],0.562 µM (active)
same,IC50,[2],9.68 µM (not active)
same,IC50,[3],2.42 µM (active)
same,IC50,[4],> 49.8 µM (not active)
same,AC50,[5],1.61 µM (active)
same,EC50,Protein RecA,1.34 µM (active)
same,EC50,[6],35 µM (inactive)
same,IC50,Fatty acid synthase [7],8.18 µM (active)
same,IC50,Fatty acid synthase [8],8.51 µM (active)
CCCC(=O)NC(c1ccccc1Cl)c1ccc2cccnc2c1O (stereo not given),EC50,[9],14.6 µM (active)
same,EC50,BJ [10],1.12 µM (active)
same,EC50,cells [11],6.59 µM (active)
same,EC50,BJ [12],7.5 µM (active)
same,EC50,[13],0.656 µM (active)
same,IC50,[14],1.44 µM (active)
same,EC50,cells [15],> 350 µM (not active)
same,EC50,[16],> 180 µM (inactive)
same,EC50,BJ [17],2.49 µM (active)
same,EC50,[18],1.86 µM (inconclusive)
same,IC50,[19],> 80 µM (inactive)
same,AC50,HEK293 [20],5.2 µM (active)
same,AC50,[21],4.09 µM (active)
same,IC50,HEK293 [22],9.95 µM (active)
same,IC50,Jurkat,4.29 µM (active)
same,IC50,HEK293 [23],7.04 µM (active)
same,AC50,INS1,0.63 µM (active)
same,EC50,[24],> 150 µM (inactive)
same,AC50,[25],1.21 µM (active)
same,AC50,[26],2.66 µM (active)
same,AC50,[27],1.27 µM (active)
CCOC(=O)c1c(-n2c(C)cc(C=C3C(=O)NC(=S)NC3=O)c2C)sc2c1CCCC2,EC50,[28],> 32 µM (inactive)
same,IC50,Hexokinase HKDC1,23.1 µM (inactive)
same,AC50,[21],2.61 µM (active)
same,CC50,Vero,11.9 µM (active)
same,IC50,[29],10 µM (active)

# From ChEMBL document CHEMBL1201862, “PubChem BioAssay data set” (2004)
